Measurements taken from patent US20220332845A1, “INHIBITION OF MTHFD1L FOR USE IN HYPERTROPHIC HEART DISEASE AND HEART FAILURE” (GENOME BIOLOGICS UG, priority 2019, published 2022).

Key:
[1] = tested on: primary neonatal rat cardiomyocytes (NRC); test: Immunofluorescent staining of NRCs: multinucleation and cell size; type: cell-based; settings: 10 μM ADP for 3 days
Description: Isolation of primary neonatal rat cardiomyocytes (NRC) was performed using the neonatal heart dissociation kit (130-098-373, Miltenyi Biotec) as recommended by the manufacturer. Isolated cells were pre-plated with plating medium (65% DMEM, 16% M199, 10% fetal calf serum (FCS), 5% horse serum (HS), 2% glutamine and 1% penicillin/streptomycin (P/S)) for 1.5 h to deplete of the fibroblasts. NRC were plated on Type-I Collagen-coated (Advanced Biomatrix) 3 cm dishes (Nunc) in plating medium. The plating medium was changed to maintenance medium (88% DMEM, 9% M199, 1% HS, 2% glutamine and 1% P/S) 24 h after isolation of NRCs. Cardiomyocytes were treated with 3,3′,5-Triiodo-L-thyronine (T3, T5516, Sigma Aldrich) for 6 days at a concentration of 15 nM. NRCs were stimulated with exogenous ADP (A2754, Sigma Aldrich) at a concentration of 10 μM for 3 days. NRC were randomly chosen for treatment the day after isolation.
Immunofluorescent stainings were performed as described previously (Krishnan et al. Cell Metab 9, 512-524 (2009)). After fixation of NRCs with 4% paraformaldehyde (PFA)/PBS, the cells were permeabilized and incubated with primary antibodies against sarcomeric α-actinin (A7811, Sigma Aldrich) and phospho-Histone H3 (Ser10) (05-817, Cell Signaling) diluted in 2% (v/v) HS for 1 h at RT. […] Cell size was quantified blinded using the software Image J (version 1.47).

NRCs [2] = test: [3H]leucine incorporation assay in NRCs; type: cell-based, rat; settings: T3 15 nM for 6 days, scrLNA or miR27b-5p LNAs
Description: [^3H]leucine incorporation assay was used to measure de novo protein synthesis as an indirect readout for cell growth (Fukuzawa et al. Hypertension 35, 1191-1196 (2000).). 4×10^5 cells were seeded per 3 cm dish. After 3 days, cells were serum-starved overnight. Next day, cells were cultured in leucine-free medium for 4h, followed by culturing in maintenance medium containing labeled […] (specific activity 30-60 Ci/mmol, ART0233, American Radiolabelled Chemicals) at a concentration of 0.5 μCi/mL for 20 h. The next day, cells were washed with PBS, trypsinized and the radioactivity was measured for 5 min in the liquid scintillation analyzer Tri-Carb 2800TR (Perkin Elmer). Cells were counted blinded with a Neubauer chamber after trypsinization and scintillation counts were normalized to absolute cell number.

NRCs [3] = test: ADP/ATP ratio in NRCs; type: cell-based, rat; settings: T3 15 nM for 6 days, scrLNA or miR27b-5p LNAs
Description: Mitochondria were isolated using the Mitochondria Isolation Kit for Cultured Cells (Abcam). Briefly, 1.2×10^6 NRCs were seeded per 6 cm dish and cells collected by scraping. After a freeze-thaw step to weaken the cell membrane, the cells were resuspended to a protein concentration of 5 mg/mL in Reagent A and incubated for 10 min on ice. The cells were homogenized with 30 strokes in a Dounce Homogenizer and centrifuged at 1000 g for 10 min at 4° C. The pellet was resuspended in the same volume of Reagent B than was used for Reagent A and rupturing and centrifugation was repeated. The supernatants after the two centrifugation steps were combined and centrifuged at 12000 g for 15 min at 4° C. Pellet was resuspended in 80 μL Reagent C supplemented with protease inhibitors and stored at −80° C. Mitochondrial ADP:ATP quantification was performed as recommended by the manufacturer (Abcam). 4×10^5 NRCs were seeded per well in a 3 cm dish and the assay was performed using the EnzyLight ADP/ATP Ratio Assay Kit (ELDT-100, Bioassay Systems) as recommended by the manufacturer. Luminescence was measured on a FLUOstar Omega plate reader (BMG).

## Nc1ncnc2c1ncn2[C@@H]1O[C@H](COP(=O)(O)OP(=O)(O)O)[C@@H](O)[C@H]1O [ADP]
[1]
  cardiomyocyte hypertrophy by cell size quantification: cardiomyocyte hypertrophy
  multinucleation (percentage of multinucleated cells): sufficiency to induce multinucleation

## N[C@@H](Cc1cc(I)c(Oc2ccc(O)c(I)c2)c(I)c1)C(=O)O [T3, 3,3′,5-Triiodo-L-thyronine]
NRCs [2]
  hypertrophy ([3H]leucine incorporation): highly miR27b-dependent hypertrophy
NRCs [3]
  ADP/ATP: increase
